For this data set, the system named is GENE-TOX genotoxicity assays, various organisms and cells. The data set can be described thus: GENE-TOX mutagenicity studies. Conditions: for call: Assay Type: In vivo carcinogenicity studies. An excerpt:
GENE-TOX provides genetic toxicology (mutagenicity) test data from expert peer review of open scientific literature for more than 3,000 chemicals from the United States Environmental Protection Agency (EPA). GENE-TOX was established to select assay systems for evaluation, review data in the scientific literature, and recommend proper testing protocols and evaluation procedures for these systems.
GENE-TOX covers the years 1991 - 1998. It is no longer updated.
This is an archive assay for GENE-TOX mutagenicity studies.

[1] abbreviates: Species/Cell Type: Human, Assay Type: Sister-chromatid exchange (SCE) in vitro, Assay Code: SC1T, Evaluation Type: Evaluation B (Post-1980).
Setting [2] is: Species/Cell Type: Escherichia coli polA (W3119 vs P3478), Assay Type: Rec-assay, DNA effects (bacterial DNA repair), Assay Code: RE1T, Evaluation Type: Evaluation A (Pre-1980).
Setting [3] is: Species/Cell Type: Salmonella typhimurium (one or more of the five standard strains: TA98, TA100, TA1535, TA1537, and TA1538), Assay Type: Histidine reverse gene mutation, Ames assay, Assay Code: SALT, Evaluation Type: Evaluation A (Pre-1980).
[4] abbreviates: Species/Cell Type: Drosophila melanogaster, Assay Type: Sex-linked recessive lethal gene mutation, Assay Code: SRLT, Evaluation Type: Evaluation A (Pre-1980).
Setting [5] is: Species/Cell Type: Mammalian polychromatic erythrocytes, Assay Type: Micronucleus test, chromosome aberrations, Assay Code: MNT+, Evaluation Type: Evaluation B (Post-1980).
The mark [6] stands for this setting: Species/Cell Type: Nonhuman, Assay Type: Sister-chromatid exchange (SCE) in vitro, Assay Code: SC2T, Evaluation Type: Evaluation B (Post-1980).
[7] abbreviates: Species/Cell Type: Human, Assay Type: Sister-chromatid exchange (SCE) in vitro, Assay Code: SC1+, Evaluation Type: Evaluation B (Post-1980).
[8] abbreviates: Species/Cell Type: Human lymphocytes, Assay Type: Sister-chromatid exchange (SCE) in vitro, Assay Code: SCL+D, Dose Response: With dose response, Evaluation Type: Evaluation B (Post-1980).
Setting [9] is: Species/Cell Type: Human, Assay Type: Sister-chromatid exchange (SCE) in vitro, Assay Code: SC1+D, Dose Response: With dose response, Evaluation Type: Evaluation B (Post-1980).
[10] abbreviates: Species/Cell Type: Nonhuman, Assay Type: Sister-chromatid exchange (SCE) in vitro, Assay Code: SC2+, Evaluation Type: Evaluation B (Post-1980).

Activity calls are given as the source filed them. No rule for the calls is given here.

Turning to `CC(=O)O`, the mutagenic call is, setting by setting: (Species/Cell Type: Human lymphocytes, Assay Type: Sister-chromatid exchange (SCE) in vitro, Assay Code: SCL-, Evaluation Type: Evaluation A (Pre-1980)) “inactive; negative”; (Species/Cell Type: Human, Assay Type: Sister-chromatid exchange (SCE) in vitro, Assay Code: SC1-, Evaluation Type: Evaluation A (Pre-1980)) “inactive; negative”; (Species/Cell Type: Salmonella typhimurium (one or more of the five standard strains: TA98, TA100, TA1535, TA1537, and TA1538), Assay Type: Histidine reverse gene mutation, Ames assay, Assay Code: SAL-, Evaluation Type: Evaluation A (Pre-1980)) “inactive; negative”; (Species/Cell Type: Syrian hamster embryo (SA7/SHE) cells, Assay Type: Cell transformation, viral enhanced, Assay Code: CT7-, Evaluation Type: Evaluation A (Pre-1980)) “inactive; negative”. For the molecule `CCCOC(=O)c1cc(O)c(O)c(O)c1`, under setting [1], the mutagenic call is “no conclusion”. Regarding `CCN(CC)CCOC(=O)c1ccc(N)cc1`, the mutagenic call under setting [2] is recorded as “no conclusion” and the mutagenic call under setting [3] is recorded as “no conclusion”. For `CN(OC(=O)c1ccccc1)c1ccc(N=Nc2ccccc2)cc1`, the mutagenic call under setting [4] is “no conclusion”. For `Nc1nc(-c2csc(N)n2)cs1`, the mutagenic call under setting [3] is “no conclusion”.

Turning to `O[C@@H]1C=Cc2c(cc3ccc4cccc5ccc2c3c45)[C@@H]1O`, the mutagenic call under setting [3] is recorded as “no conclusion”.

In the case of `Clc1cccc(Cl)c1Cl`, the mutagenic call under setting [5] is “active; positive”.

As for `COc1cc2c(c3oc(=O)c4c(c13)CCC4=O)[C@@H]1C[C@H](O)O[C@@H]1O2`, the mutagenic call under setting [3] is given as “no conclusion”. For the molecule `COP(N)(=O)SC` (configuration not stated), under setting [6], the mutagenic call is given as “no conclusion”.

Take `C[CH2][Pb]([Cl])([CH2]C)[CH2]C`: the mutagenic call by setting is: (Species/Cell Type: Drosophila melanogaster, Assay Type: Aneuploidy, sex chromosome gain, chromosome aberrations, Assay Code: DAG-M, Evaluation Type: Evaluation A (Pre-1980)) “inactive; negative”; (Species/Cell Type: Drosophila melanogaster, Assay Type: Aneuploidy, whole sex chromosome loss, chromosome aberrations, Assay Code: DAC+M, Evaluation Type: Evaluation A (Pre-1980)) “active; positive”.

On to `Clc1ccc(Cl)cc1`, for which the mutagenic call reads like this: (Species/Cell Type: Allium cepa, Assay Type: Chromosome aberrations, Assay Code: ALC+, Evaluation Type: Evaluation A (Pre-1980)) “active; positive”; under setting [5], “active; positive”.

In the case of `Nc1nc2nc[nH]c2c(=O)[nH]1`, the mutagenic call under setting [4] is recorded as “no conclusion” and the mutagenic call under setting [2] is “no conclusion”. Regarding `CC(F)F`, the mutagenic call under setting [4] is on record as “no conclusion”. Regarding `COc1ccc2c(c1)C(=O)N(CCc1ccc(S(=O)(=O)NC(=O)NC3CCCCC3)cc1)C(=O)C2(C)C`, the mutagenic call (Species/Cell Type: Nonhuman, Assay Type: Sister-chromatid exchange (SCE) in vivo, Assay Code: SC3T, Evaluation Type: Evaluation B (Post-1980)) is “no conclusion”. Regarding `CCC=O`, the mutagenic call is, setting by setting: (Species/Cell Type: Human lymphocytes, Assay Type: Sister-chromatid exchange (SCE) in vitro, Assay Code: SCL+, Evaluation Type: Evaluation B (Post-1980)) “active; positive”; under setting [7], “active; positive”. For `Cc1nc(NO)cc2[nH]c3ccccc3c12`, the mutagenic call under setting [8] is “active; positive” and the mutagenic call under setting [9] is “active; positive”.

Turning to `Oc1cc(Cl)c(-c2cc(Cl)ccc2Cl)cc1Cl`, the mutagenic call under setting [3] is on record as “no conclusion”.

With `CCN(N=O)C(C)(C)C`, the mutagenic call under setting [4] is “no conclusion”. As for `C=Cc1cc(C)cc(C)c1`, the mutagenic call runs as follows: under setting [8], “active; positive”; under setting [9], “active; positive”. With `CCC(Br)(CC)C(=O)NC(N)=O`, the call (Species/Cell Type: Nonhuman, Assay Code: CCG-, Evaluation Type: Evaluation A (Pre-1980)) was “inactive; negative”. Take `[Cl][Cr]([Cl])[Cl]`: the mutagenic call is, setting by setting: (Species/Cell Type: Bacillus subtilis (H17 vs M45), Assay Type: Rec-assay, spot test, DNA effects (bacterial DNA repair), Assay Code: REW-, Evaluation Type: Evaluation A (Pre-1980)) “inactive; negative”; (Species/Cell Type: Human lymphocytes, Assay Type: Sister-chromatid exchange (SCE) in vitro, Assay Code: SCL-, Evaluation Type: Evaluation B (Post-1980)) “inactive; negative”; (Species/Cell Type: Human, Assay Type: Sister-chromatid exchange (SCE) in vitro, Assay Code: SC1-, Evaluation Type: Evaluation B (Post-1980)) “inactive; negative”; (Species/Cell Type: Mammalian oocytes or early embryo, Assay Type: Chromosome aberrations in vivo, Assay Code: CYO-, Evaluation Type: Evaluation A (Pre-1980)) “inactive; negative”; under setting [10], “active; positive”; under setting [6], “no conclusion”. Also, under setting [3], the mutagenic call is on record as “no conclusion”. For `Oc1c(Oc2ccc(Cl)cc2Cl)cc(Cl)c(Cl)c1Cl`, the mutagenic call by setting is: (Species/Cell Type: Human lymphocytes, Assay Type: Sister-chromatid exchange (SCE) in vitro, Assay Code: SCLT, Evaluation Type: Evaluation B (Post-1980)) “no conclusion”; under setting [1], “no conclusion”; (Species/Cell Type: Mouse, Sex: Female, Assay Type: Spot test, gene mutation, Assay Code: MSTT, Evaluation Type: Evaluation A (Pre-1980)) “no conclusion”; (Species/Cell Type: Saccharomyces cerevisiae, Assay Type: Forward gene mutation, Assay Code: YEF+, Evaluation Type: Evaluation A (Pre-1980)) “active; positive”; (Species/Cell Type: Saccharomyces cerevisiae, Assay Type: Mitotic recombination or gene conversion, Assay Code: YEC-, Evaluation Type: Evaluation A (Pre-1980)) “inactive; negative”; (Species/Cell Type: Saccharomyces cerevisiae, Assay Type: Mitotic recombination or gene conversion, Assay Code: YEH+, Evaluation Type: Evaluation A (Pre-1980)) “active; positive”. For `N/C=N/O`, the mutagenic call (Species/Cell Type: Escherichia coli polA (W3119 vs P3478), Assay Type: Rec-assay, DNA effects (bacterial DNA repair), Assay Code: RE1+, Evaluation Type: Evaluation A (Pre-1980)) is “active; positive”. For the molecule `CC(=O)Nc1nc(NC(C)=O)nc(-c2ccc([N+](=O)[O-])o2)n1`, the mutagenic call (Species/Cell Type: Salmonella typhimurium (one or more of the five standard strains: TA98, TA100, TA1535, TA1537, and TA1538), Assay Type: Histidine reverse gene mutation, Ames assay, Assay Code: SAL+, Evaluation Type: Evaluation A (Pre-1980)) was “active; positive”. For `CCCCN(CC(O)CC)N=O` (configuration not stated), the mutagenic call (Species/Cell Type: Salmonella typhimurium (one or more of the five standard strains: TA98, TA100, TA1535, TA1537, and TA1538), Assay Type: Histidine reverse gene mutation, Ames assay, Assay Code: SAL+*, Activation: With metabolic activation, Evaluation Type: Evaluation A (Pre-1980)) is “active; positive”. Regarding `NC(=O)c1cccnc1`, the mutagenic call under setting [7] is “active; positive” and the mutagenic call under setting [10] is “active; positive”.

For the molecule `Oc1cc2cc3ccccc3c3ccc4cccc1c4c23`, the mutagenic call (Species/Cell Type: Chinese hamster lung (V79) cells, Assay Type: Forward gene mutation at the HPRT or ouabain locus, Assay Code: V79-, Evaluation Type: Evaluation A (Pre-1980)) was “inactive; negative”; the mutagenic call under setting [10] was “active; positive”; the mutagenic call under setting [3] is on record as “no conclusion”. The call (Species/Cell Type: Nonhuman, Assay Code: CCGT, Evaluation Type: Evaluation A (Pre-1980)) is “no conclusion”.

These data come from PubChem BioAssay AID1259408 (Genetic Toxicology Data Bank (GENE-TOX), 2018).
